Results reported in patent US20050171172A1, “Amide derivatives as PDGFR modulators” (Ambit Biosciences Corporation, priority 2003, published 2005).

Target: T1, human PDGFR-β (Homo sapiens, UniProt P09619)
T1 construct: made in house
Assay: phage-display-based competitive binding assay for PDGFR-β
Details: T7 phage displaying human PDGFR-β; Kd class; read-out: Binding Assay:PDGFRB (DKIN)
Procedure: The term “ND” represents non-determined values.
Kd values for the interactions between PDGFR-β and candidate small molecule ligands were measured by a phage-display-based competitive binding assay that is described in detail in U.S. Ser. No. 10/406,797 filed 2 Apr. 2003 and incorporated herein by reference. Briefly, T7 phage displaying human PDGFR-β were incubated with an affinity matrix coated with known PDGFR-β inhibitor in the presence of various concentrations of the soluble competitor molecules. […] The Kd for the interaction between the soluble competitor molecule and PDGFR-β is equal to the concentration of soluble competitor molecule that causes a 50% reduction in the number of phage recovered in the eluate compared to a control sample lacking soluble competitor. Kd values for the interaction between PDGFR-β and several small molecules are shown in below: […]

T1 sequence (P09619 33-1106): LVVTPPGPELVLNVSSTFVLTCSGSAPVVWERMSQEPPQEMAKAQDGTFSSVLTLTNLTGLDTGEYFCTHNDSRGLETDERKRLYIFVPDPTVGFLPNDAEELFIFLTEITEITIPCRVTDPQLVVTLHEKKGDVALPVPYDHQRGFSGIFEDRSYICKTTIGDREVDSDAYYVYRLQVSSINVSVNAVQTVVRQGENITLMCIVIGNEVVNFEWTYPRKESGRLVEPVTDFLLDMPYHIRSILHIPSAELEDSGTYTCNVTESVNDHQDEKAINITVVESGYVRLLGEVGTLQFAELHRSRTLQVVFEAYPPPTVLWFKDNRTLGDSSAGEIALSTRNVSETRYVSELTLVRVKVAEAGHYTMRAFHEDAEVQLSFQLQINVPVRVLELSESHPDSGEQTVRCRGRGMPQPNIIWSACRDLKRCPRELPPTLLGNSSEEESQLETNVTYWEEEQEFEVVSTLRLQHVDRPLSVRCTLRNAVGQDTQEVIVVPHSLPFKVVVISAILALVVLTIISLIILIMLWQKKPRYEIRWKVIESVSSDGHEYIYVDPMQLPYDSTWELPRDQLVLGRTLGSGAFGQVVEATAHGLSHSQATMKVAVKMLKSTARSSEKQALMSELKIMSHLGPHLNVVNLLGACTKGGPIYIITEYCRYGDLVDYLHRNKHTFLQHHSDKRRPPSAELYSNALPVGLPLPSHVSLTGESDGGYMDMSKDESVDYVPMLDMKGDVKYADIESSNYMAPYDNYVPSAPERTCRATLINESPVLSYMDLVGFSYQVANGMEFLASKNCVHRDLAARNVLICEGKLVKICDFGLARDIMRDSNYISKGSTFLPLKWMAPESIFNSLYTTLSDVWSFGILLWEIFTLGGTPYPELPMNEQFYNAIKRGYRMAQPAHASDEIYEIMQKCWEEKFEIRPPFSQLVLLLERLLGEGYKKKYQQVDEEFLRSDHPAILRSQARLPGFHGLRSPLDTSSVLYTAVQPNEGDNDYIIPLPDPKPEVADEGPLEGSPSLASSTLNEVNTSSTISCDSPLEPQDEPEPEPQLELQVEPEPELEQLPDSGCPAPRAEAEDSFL

`CC(C)(C)c1cc(NC(=O)Cc2ccc(F)cc2)on1` showed a Kd of 100 to 1000 nM.
With `CSc1ncc(Br)c(C(=O)Nc2ccc(CC(=O)Nc3cc(C(C)(C)C)on3)cc2)n1` the Kd was under 100 nM.
Compound `Cc1nn(C)c(Cl)c1C(=O)Nc1ccc(CC(=O)Nc2cc(C(C)(C)C)on2)cc1` has a Kd of 100 to 1000 nM.
`COc1ccc(CC(=O)Nc2cc(C(C)(C)C)no2)cc1` was tested, and the Kd was under 100 nM.
`CC(C)Cc1ccc(C(C)C(=O)Nc2ccnn2-c2ccccc2)cc1` (stereo not shown) was tested, and the Kd was over 10000 nM.
`CC(C)(C)c1cc(NC(=O)Cc2ccc(Cl)cc2)on1` was tested, and the Kd was 100 to 1000 nM.
For `O=C(Cc1ccc(OCc2ccccc2)cc1)Nc1nc2ccccc2s1`, the Kd was over 10000 nM.
`CC(C)(C)c1cc(NC(=O)Sc2ccc(Cl)cc2)no1` gave a Kd of over 10000 nM.
For `CC(C)(C)c1cc(NC(=O)Cc2ccc(NC(=O)c3ccc4cnccc4n3)cc2)no1`, the Kd was under 100 nM.
In the case of `Cn1cc(C(=O)Nc2ccc(CC(=O)Nc3cc(C(C)(C)C)on3)cc2)c2ccccc21`, the Kd is reported as under 100 nM.
`O=C(Cc1ccc(OCc2ccccc2)cc1)Nc1nc(-c2ccc(Cl)cc2)cs1` was tested, and the Kd was over 10000 nM.
Work on `Cc1cc(C)n(C(=O)Nc2ccc(Cl)cc2)n1` yielded a Kd of over 10000 nM.
In the case of `CC(C)(C)c1cc(NC(=O)Cc2ccc(OCc3ccccc3)cc2)on1`, the Kd is reported as under 100 nM.
`CC(C)(C)c1cc(NC(=O)Cc2ccc(NC(=O)c3cnc4ccccc4c3)cc2)no1` showed a Kd of under 100 nM.
With `CC(C)(C)c1cc(NC(=O)Cc2ccc(NC(=O)c3cccc4cccnc34)cc2)no1` the Kd was 1000 to 10000 nM.
For `Cc1csc(NC(=O)Cc2ccc(OCc3ccccc3)cc2)n1`, the Kd was over 10000 nM.
For `COc1cccc2sc(NC(=O)Cc3ccc(OCc4ccccc4)cc3)nc12`, the Kd was over 10000 nM.
`CC(C)(C)c1cc(NC(=O)Cc2ccc(O)cc2)no1` gave a Kd of over 10000 nM.
In the case of `COc1ccc(SC(=O)Nc2cc(C(C)(C)C)on2)cc1`, the Kd is reported as 1000 to 10000 nM.
`Cc1cnc(NC(=O)Cc2ccc(OCc3ccccc3)cc2)s1` showed a Kd of over 10000 nM.
For `COc1cccc2cc([C@H](C)C(=O)Nc3cc(C(C)(C)C)on3)ccc12`, the Kd was 100 to 1000 nM.
With `CC(C)(C)c1cc(NC(=O)Cc2ccc(Br)cc2)on1` the Kd was under 100 nM.
